Among the data in US20070254917A1, “INTRACELLULAR RECEPTOR MODULATOR COMPOUNDS AND METHODS” (priority 2004, published 2007) are Ki values, retold here.

As usually defined, the Ki is the equilibrium dissociation constant of an inhibitor or competing ligand from its target. Read a high Ki as lower affinity.

The test deals with T1, human mineralocorticoid Receptor-α (MRα) (Homo sapiens, UniProt P08235).
T1 construct: made in house; host or cells: Sf21 insect cells (baculovirus), as described for GR
T1 sequence (P08235 1-984): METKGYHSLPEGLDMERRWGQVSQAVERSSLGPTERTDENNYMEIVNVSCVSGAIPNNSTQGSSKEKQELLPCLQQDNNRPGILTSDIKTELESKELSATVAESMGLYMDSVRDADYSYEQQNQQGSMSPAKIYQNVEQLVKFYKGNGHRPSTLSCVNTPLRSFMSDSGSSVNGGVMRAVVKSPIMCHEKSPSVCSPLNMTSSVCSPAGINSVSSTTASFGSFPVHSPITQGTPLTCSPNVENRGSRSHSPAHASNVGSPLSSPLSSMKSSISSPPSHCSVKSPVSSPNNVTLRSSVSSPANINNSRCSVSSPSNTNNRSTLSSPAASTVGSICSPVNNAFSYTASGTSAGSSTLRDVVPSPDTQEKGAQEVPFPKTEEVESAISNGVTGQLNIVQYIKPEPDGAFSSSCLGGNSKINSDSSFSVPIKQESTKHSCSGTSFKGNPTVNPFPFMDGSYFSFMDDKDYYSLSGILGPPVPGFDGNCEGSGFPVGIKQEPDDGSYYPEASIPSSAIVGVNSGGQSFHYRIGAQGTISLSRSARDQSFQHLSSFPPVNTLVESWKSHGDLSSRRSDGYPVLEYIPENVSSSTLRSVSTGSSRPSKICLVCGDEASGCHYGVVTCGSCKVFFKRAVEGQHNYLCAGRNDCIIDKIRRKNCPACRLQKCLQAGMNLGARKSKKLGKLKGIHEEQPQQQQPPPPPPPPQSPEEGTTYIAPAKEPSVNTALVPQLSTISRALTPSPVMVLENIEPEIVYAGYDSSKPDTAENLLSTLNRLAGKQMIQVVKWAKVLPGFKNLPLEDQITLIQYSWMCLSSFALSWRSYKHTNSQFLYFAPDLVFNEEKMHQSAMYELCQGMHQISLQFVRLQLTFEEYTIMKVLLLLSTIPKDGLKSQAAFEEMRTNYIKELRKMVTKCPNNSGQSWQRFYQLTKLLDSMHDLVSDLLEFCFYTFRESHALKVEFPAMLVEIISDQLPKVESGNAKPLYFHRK
Description: Mineralocorticoid binding assay ([3H]aldosterone displacement, MR lysate). The protocol: Human mineralocorticoid receptor protein was prepared from a baculovirus expression plasmid comprising cDNA encoding human mineralocorticoid Receptor-α (MRα), as described for GR (Example 158).
Binding assay samples were prepared in separate mini-tubes in a 96-well format at 4° C. Each binding assay sample was prepared in a volume of 250 μl of MR-Assay Buffer (10% glycerol, 10 mM sodium phosphate, 10 mM potassium fluoride, 20 mM sodium molybdate, 0.25 mM CHAPS, 2 mM DTT, (adjusted to pH 7.35)) containing 5-10 μg of MR lysate; 2-4 nM of [^3H]aldosterone; unlabeled aldosterone; and a test compound. Each test compound was assayed at several different concentrations, ranging from 0 to 10^−5 M and each was tested in the presence and in the absence of several different concentrations of unlabeled aldosterone. Each concentration of each test compound was assayed in triplicate. The assay samples were incubated for 16 hours at 4° C.
After incubation, protein was precipitated with hydroxylapatite, collected, and counted as described in Example 158 for GR. Specific binding for a particular sample was calculated using the same equation as was used for GR: (Sample CPM)−(Average Non-specific CPM) Average Non-specific CPM was defined as the amount of radioactivity from samples comprising an excess (i.e. 1000 nM) of unlabeled aldosterone. […] Ki values were determined using the Cheng-Prusoff equation using a previously determined Kd value for aldosterone: Ki=IC50/(1+[L]/Kd) [L]=concentration of labeled aldosterone Kd=dissociation constant of labeled aldosterone

For `CC1=CC(C)(C)Nc2ccc(-c3cccc(C(F)(F)F)c3)c(Cl)c21` [Compound 230, 5-Chloro-1,2-dihydro-2,2,4-trimethyl-6-[3-(trifluoromethyl)phenyl]quinoline], the inhibition constant Ki is 12 nM.

`CC1=CC(C)(C)Nc2ccc(-c3cccc(C(N)=O)c3)c(Cl)c21` [Compound 239, 6-(3-Carbamoylphenyl)-5-chloro-1,2-dihydro-2,2,4-trimethylquinoline]: the inhibitory constant (Ki) stood at 22 nM.

`CC1=CC(C)(C)Nc2c(C)cc(-c3cccc(C)c3)c(Cl)c21` [Compound 234, 5-Chloro-1,2-dihydro-2,2,4,8-tetramethyl-6-(3-methylphenyl)quinoline] returned a Ki of 85 nM.

`Cc1cc(-c2cncnc2)c(Cl)c2c1NC(C)(C)CC2C` (racemic) [Compound 256, (±)-5-Chloro-1,2,3,4-tetrahydro-2,2,4,8-tetramethyl-6-(pyrimidin-5-yl)quinoline] showed a Ki of 60 nM.

In turn, `CC(=O)Oc1c(-c2cccc(C#N)c2)cc(C)c2c1C(C)CC(C)(C)N2` (racemic) [Compound 245, (±)-5-Acetoxy-6-(3-cyanophenyl)-1,2,3,4-tetrahydro-2,2,4,8-tetramethylquinoline] showed an inhibition constant (Ki) of 47 nM.

As for `CCC(=O)c1cccc(-c2cc(C)c3c(c2Cl)C(C)=CC(C)(C)N3)c1` [Compound 238, 5-Chloro-1,2-dihydro-2,2,4,8-tetramethyl-6-[3-(propionyl)phenyl]quinoline], affinity was put at a Ki of 18 nM.

Regarding `Cc1cc(-c2csc(C#N)c2)c(Cl)c2c1NC(C)(C)CC2C` (racemic) [Compound 244, (±)-5-Chloro-6-(5-cyanothiophen-3-yl)-1,2,3,4-tetrahydro-2,2,4,8-tetramethylquinoline], the Ki is 6 nM.
